Test results published in patent publication US20250163104A1, “MACROCYCLIC IMMUNOMODULATORS” (priority 2021, published 2025).
*1 amine or outer side, *2 acyl side, *3 side chain or, on linkers, in order; H or OH if unused. Where a SMILES comes first, the peptide text is derived from it. Bridges are numbered along the chain shown (N, C = ends). [ ]: non-standard residue; d: D form. The star is where a group is joined. Phe(3-CH2NH2) = O=C([C@H](Cc1cccc(CN[*:3])c1)N[*:1])[*:2]; Bip = N[C@@H](Cc1ccc(-c2ccccc2)cc1)C(=O)O; AEF = NCCOc1ccc(C[C@H](N)C(=O)O)cc1; Cha = N[C@@H](CC1CCCCC1)C(=O)O; Carboxymethyl = O=C(O)C*; Orn = NCCC[C@H](N)C(=O)O; Dab = NCC[C@H](N)C(=O)O; Dap = NC[C@H](N)C(=O)O

Biological target: T1, human PD-1 / PD-L1-Ig binding on Jurkat cell line over-expressing human PD-1 (Jurkat-PD-1) (Homo sapiens, UniProt Q15116)
T1 construct: expressed in transfected cells; host or cells: Jurkat
T1 sequence (Q15116 25-288): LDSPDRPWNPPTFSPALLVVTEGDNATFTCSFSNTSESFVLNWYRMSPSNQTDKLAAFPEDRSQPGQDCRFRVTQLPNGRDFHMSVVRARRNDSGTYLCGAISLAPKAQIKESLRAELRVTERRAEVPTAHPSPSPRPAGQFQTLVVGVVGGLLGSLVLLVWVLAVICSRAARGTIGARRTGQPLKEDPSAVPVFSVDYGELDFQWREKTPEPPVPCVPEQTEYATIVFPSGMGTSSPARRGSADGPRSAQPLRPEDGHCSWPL
Experiment: Jurkat-PD-1 Cell Binding High-Content Screening Assay (CBA)
Format: cell-based
Conditions: Jurkat-PD-1 cells, PE-labeled PD-L1-Ig 20 nM final; read-out: Jurkat HPD1_PDL1 IC50
Outline: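 Binding of fluorescent PD-L1-Ig (phycoerythrin linked via the Ig tag, 20 nM final) to PD-1-overexpressing Jurkat cells was imaged after a 2 h, 37° C compound pretreatment and 1 hour ligand incubation.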

First: CC(C)C[C@H]1NC(=O)[C@H](CCCN)NC(=O)[C@H](CCC(=O)O)NC(=O)[C@H](Cc2ccc(-c3ccccc3)cc2)NC(=O)[C@H](C(C)C)NC(=O)[C@H](Cc2c[nH]c3ccccc23)NC(=O)[C@H](CC(=O)O)NC(=O)[C@H](Cc2ccc(OCC(=O)O)cc2)NC(=O)[C@H](CN)NC(=O)CSC[C@@H](C(=O)N[C@@H](C)C(N)=O)NC(=O)[C@H]([C@@H](C)O)NC(=O)[C@H](C(C)C)NC(=O)[C@H](Cc2cccc(CN)c2)NC(=O)[C@H](CCN)NC1=O [Compound 1508] ({CH2CO}-[Dap]Y(Carboxymethyl)DWV[Bip]E[Orn][dL][Dab][Phe(3-CH2NH2)]VTCA-NH2; thioether N-14)
Second: CC(C)C[C@H]1NC(=O)[C@H](CCCN)NC(=O)[C@H](CCC(=O)O)NC(=O)[C@H](Cc2ccc(-c3ccccc3)cc2)NC(=O)[C@H](C(C)C)NC(=O)[C@H](Cc2c[nH]c3ccccc23)NC(=O)[C@H](CC(=O)O)NC(=O)[C@H](Cc2ccc(OCC(=O)O)cc2)NC(=O)[C@H](CN)NC(=O)CSC[C@@H](C(=O)N[C@@H](C)C(N)=O)NC(=O)[C@H]([C@@H](C)O)NC(=O)[C@H](C(C)C)NC(=O)[C@H](Cc2ccc(OCCN)cc2)NC(=O)[C@H](CCN)NC1=O [Compound 1511] ({CH2CO}-[Dap]Y(Carboxymethyl)DWV[Bip]E[Orn][dL][Dab][AEF]VTCA-NH2; thioether N-14)
The IC50 of the first is 4.5-fold lower: 163 nM for the first, 737 nM for the second.

Compared with `CC(C)C[C@H]1NC(=O)[C@H](CCCN)NC(=O)[C@H](CCC(=O)O)NC(=O)[C@H](Cc2ccc(-c3ccccc3)cc2)NC(=O)[C@H](C(C)C)NC(=O)[C@H](Cc2c[nH]c3ccccc23)NC(=O)[C@H](CC(=O)O)NC(=O)[C@H](Cc2ccc(OCC(=O)O)cc2)NC(=O)[C@H](CN)NC(=O)CSC[C@@H](C(=O)N[C@@H](C)C(N)=O)NC(=O)[C@H]([C@@H](C)O)NC(=O)[C@H](C(C)C)NC(=O)[C@H](Cc2ccn[nH]2)NC(=O)[C@H](CCN)NC1=O` [Compound 1509], `CC(C)C[C@H]1NC(=O)[C@H](CCCN)NC(=O)[C@H](CCC(=O)O)NC(=O)[C@H](Cc2ccc(-c3ccccc3)cc2)NC(=O)[C@H](C(C)C)NC(=O)[C@H](Cc2c[nH]c3ccccc23)NC(=O)[C@H](CC(=O)O)NC(=O)[C@H](Cc2ccc(OCC(=O)O)cc2)NC(=O)[C@H](CN)NC(=O)CSC[C@@H](C(=O)N[C@@H](C)C(N)=O)NC(=O)[C@H]([C@@H](C)O)NC(=O)[C@H](C(C)C)NC(=O)[C@H](Cc2cscn2)NC(=O)[C@H](CCN)NC1=O` [Compound 1510] is 16-fold lower in IC50: 413 nM for the first, 25.7 nM for the second. The second is the more potent here.

Going from `CC(C)C[C@H]1NC(=O)[C@H](CCCN)NC(=O)[C@H](CCC(=O)O)NC(=O)[C@H](Cc2ccc(-c3ccccc3)cc2)NC(=O)[C@H](C(C)C)NC(=O)[C@H](Cc2c[nH]c3ccccc23)NC(=O)[C@H](CC(=O)O)NC(=O)[C@H](Cc2ccc(OCC(=O)O)cc2)NC(=O)[C@H](CN)NC(=O)CSC[C@@H](C(=O)N[C@@H](C)C(N)=O)NC(=O)[C@H]([C@@H](C)O)NC(=O)[C@H](C(C)C)NC(=O)[C@H](CC2CCCCC2)NC(=O)[C@H](CC(N)=O)NC1=O` [Compound 1512] ({CH2CO}-[Dap]Y(Carboxymethyl)DWV[Bip]E[Orn][dL]N[Cha]VTCA-NH2; thioether N-14) to `CC(C)C[C@H]1NC(=O)[C@H](CCCN)NC(=O)[C@H](CCC(=O)O)NC(=O)[C@H](Cc2ccc(-c3ccccc3)cc2)NC(=O)[C@H](C(C)C)NC(=O)[C@H](Cc2c[nH]c3ccccc23)NC(=O)[C@H](CC(=O)O)NC(=O)[C@H](Cc2ccc(OCC(=O)O)cc2)NC(=O)[C@H](CN)NC(=O)CSC[C@@H](C(=O)N[C@@H](C)C(N)=O)NC(=O)[C@H]([C@@H](C)O)NC(=O)[C@H](C(C)C)NC(=O)[C@H](CC2CCCCC2)NC(=O)[C@H](CC(=O)O)NC1=O` [Compound 1514] ({CH2CO}-[Dap]Y(Carboxymethyl)DWV[Bip]E[Orn][dL]D[Cha]VTCA-NH2; thioether N-14), the IC50 rises from 22.9 nM to 34.8 nM (1.5-fold).

`CC(C)C[C@H]1NC(=O)[C@H](CCCN)NC(=O)[C@H](CCC(=O)O)NC(=O)[C@H](Cc2ccc(-c3ccccc3)cc2)NC(=O)[C@H](C(C)C)NC(=O)[C@H](Cc2c[nH]c3ccccc23)NC(=O)[C@H](CC(=O)O)NC(=O)[C@H](Cc2ccc(OCC(=O)O)cc2)NC(=O)[C@H](CN)NC(=O)CSC[C@@H](C(=O)N[C@@H](C)C(N)=O)NC(=O)[C@H]([C@@H](C)O)NC(=O)[C@H](C(C)C)NC(=O)[C@H](CC2CCCCC2)NC(=O)[C@H](CCC(N)=O)NC1=O` [Compound 1513] ({CH2CO}-[Dap]Y(Carboxymethyl)DWV[Bip]E[Orn][dL]Q[Cha]VTCA-NH2; thioether N-14) and `CC(C)C[C@H]1NC(=O)[C@H](CCCN)NC(=O)[C@H](CCC(=O)O)NC(=O)[C@H](Cc2ccc(-c3ccccc3)cc2)NC(=O)[C@H](C(C)C)NC(=O)[C@H](Cc2c[nH]c3ccccc23)NC(=O)[C@H](CC(=O)O)NC(=O)[C@H](Cc2ccc(OCC(=O)O)cc2)NC(=O)[C@H](CN)NC(=O)CSC[C@@H](C(=O)N[C@@H](C)C(N)=O)NC(=O)[C@H]([C@@H](C)O)NC(=O)[C@H](C(C)C)NC(=O)[C@H](CC2CCCCC2)NC(=O)[C@H](CCC(=O)O)NC1=O` [Compound 1515] ({CH2CO}-[Dap]Y(Carboxymethyl)DWV[Bip]E[Orn][dL]E[Cha]VTCA-NH2; thioether N-14) are within 1.5-fold of each other in IC50: 25.7 nM for the first, 28.8 nM for the second.

`CC(C)C[C@H]1NC(=O)[C@H](CCCN)NC(=O)[C@H](CCC(=O)O)NC(=O)[C@H](Cc2ccc(-c3ccccc3)cc2)NC(=O)[C@H](C(C)C)NC(=O)[C@H](Cc2c[nH]c3ccccc23)NC(=O)[C@H](CC(=O)O)NC(=O)[C@H](Cc2ccc(OCC(=O)O)cc2)NC(=O)[C@H](CN)NC(=O)CSC[C@@H](C(=O)N[C@@H](C)C(N)=O)NC(=O)[C@H]([C@@H](C)O)NC(=O)[C@H](C(C)C)NC(=O)[C@H](CC2CCCCC2)NC(=O)[C@H](CO)NC1=O` [Compound 1516] ({CH2CO}-[Dap]Y(Carboxymethyl)DWV[Bip]E[Orn][dL]S[Cha]VTCA-NH2; thioether N-14) and `CC(C)C[C@H]1NC(=O)[C@H](CCCN)NC(=O)[C@H](CCC(=O)O)NC(=O)[C@H](Cc2ccc(-c3ccccc3)cc2)NC(=O)[C@H](C(C)C)NC(=O)[C@H](Cc2c[nH]c3ccccc23)NC(=O)[C@H](CC(=O)O)NC(=O)[C@H](Cc2ccc(OCC(=O)O)cc2)NC(=O)[C@H](CN)NC(=O)CSC[C@@H](C(=O)N[C@@H](C)C(N)=O)NC(=O)[C@H]([C@@H](C)O)NC(=O)[C@H](C(C)C)NC(=O)[C@H](CC2CCCCC2)NC(=O)[C@H]([C@@H](C)O)NC1=O` [Compound 1517] ({CH2CO}-[Dap]Y(Carboxymethyl)DWV[Bip]E[Orn][dL]T[Cha]VTCA-NH2; thioether N-14) are within 1.5-fold of each other in IC50: 30 nM for the first, 34.2 nM for the second.

`CC(C)C[C@H]1NC(=O)[C@H](CCCN)NC(=O)[C@H](CCC(=O)O)NC(=O)[C@H](Cc2ccc(-c3ccccc3)cc2)NC(=O)[C@H](C(C)C)NC(=O)[C@H](Cc2c[nH]c3ccccc23)NC(=O)[C@H](CC(=O)O)NC(=O)[C@H](Cc2ccc(OCC(=O)O)cc2)NC(=O)[C@H](CN)NC(=O)CSC[C@@H](C(=O)N[C@@H](C)C(N)=O)NC(=O)[C@H]([C@@H](C)O)NC(=O)[C@H](C(C)C)NC(=O)[C@H](CC2CCCCC2)NC(=O)[C@H](Cc2cnc[nH]2)NC1=O` [Compound 1518] and `CC(C)C[C@H]1NC(=O)[C@H](CCCN)NC(=O)[C@H](C(C)C)NC(=O)[C@H](Cc2ccc(-c3ccccc3)cc2)NC(=O)[C@H](C(C)C)NC(=O)[C@H](Cc2c[nH]c3ccccc23)NC(=O)[C@H](CC(=O)O)NC(=O)[C@H](Cc2ccc(OCC(=O)O)cc2)NC(=O)[C@H](CN)NC(=O)CSC[C@@H](C(=O)N[C@@H](C)C(N)=O)NC(=O)[C@H]([C@@H](C)O)NC(=O)[C@H](C(C)C)NC(=O)[C@H](CC2CCCCC2)NC(=O)[C@H](CCC(=O)O)NC1=O` [Compound 1522] ({CH2CO}-[Dap]Y(Carboxymethyl)DWV[Bip]V[Orn][dL]E[Cha]VTCA-NH2; thioether N-14) are within 1.5-fold of each other in IC50: 18.7 nM for the first, 23.3 nM for the second.

Compared with `CC(C)C[C@H]1NC(=O)[C@H](CCCN)NC(=O)[C@H](C(C)C)NC(=O)[C@H](Cc2ccc(-c3ccccc3)cc2)NC(=O)[C@H](C(C)C)NC(=O)[C@H](Cc2c[nH]c3ccccc23)NC(=O)[C@H](CC(=O)O)NC(=O)[C@H](Cc2ccc(OCC(=O)O)cc2)NC(=O)[C@H](CN)NC(=O)CSC[C@@H](C(=O)N[C@@H](C)C(N)=O)NC(=O)[C@H]([C@@H](C)O)NC(=O)[C@H](C(C)C)NC(=O)[C@H](CC2CCCCC2)NC(=O)[C@H](CC(N)=O)NC1=O` [Compound 1519] ({CH2CO}-[Dap]Y(Carboxymethyl)DWV[Bip]V[Orn][dL]N[Cha]VTCA-NH2; thioether N-14), `CC(C)C[C@H]1NC(=O)[C@H](CCCN)NC(=O)[C@H](C(C)C)NC(=O)[C@H](Cc2ccc(-c3ccccc3)cc2)NC(=O)[C@H](C(C)C)NC(=O)[C@H](Cc2c[nH]c3ccccc23)NC(=O)[C@H](CC(=O)O)NC(=O)[C@H](Cc2ccc(OCC(=O)O)cc2)NC(=O)[C@H](CN)NC(=O)CSC[C@@H](C(=O)N[C@@H](C)C(N)=O)NC(=O)[C@H]([C@@H](C)O)NC(=O)[C@H](C(C)C)NC(=O)[C@H](CC2CCCCC2)NC(=O)[C@H](CC(=O)O)NC1=O` [Compound 1521] ({CH2CO}-[Dap]Y(Carboxymethyl)DWV[Bip]V[Orn][dL]D[Cha]VTCA-NH2; thioether N-14) is 2.3-fold higher in IC50: 7.7 nM for the first, 17.7 nM for the second.

For `CC(C)C[C@H]1NC(=O)[C@H](CCCN)NC(=O)[C@H](C(C)C)NC(=O)[C@H](Cc2ccc(-c3ccccc3)cc2)NC(=O)[C@H](C(C)C)NC(=O)[C@H](Cc2c[nH]c3ccccc23)NC(=O)[C@H](CC(=O)O)NC(=O)[C@H](Cc2ccc(OCC(=O)O)cc2)NC(=O)[C@H](CN)NC(=O)CSC[C@@H](C(=O)N[C@@H](C)C(N)=O)NC(=O)[C@H]([C@@H](C)O)NC(=O)[C@H](C(C)C)NC(=O)[C@H](CC2CCCCC2)NC(=O)[C@H](CCC(N)=O)NC1=O` [Compound 1520] ({CH2CO}-[Dap]Y(Carboxymethyl)DWV[Bip]V[Orn][dL]Q[Cha]VTCA-NH2; thioether N-14), the IC50 was 10.5 nM.
